These are literature values, as cited in patent publication US9320798B2, “Lipid delivery formulations” (Dicerna Pharmaceuticals, Inc., priority 2010, dated 2016).

The test system of the data set is TLR4. The conditions noted are these: Numata et al. PNAS USA 107: 320-325; Abate et al., J Lipid Res 51: 334-344.

Consider `CCCCCCCCCCCCCCCC(=O)OC[C@H](COP(=O)([O-])OCC[N+](C)(C)C)OC(=O)CCCCCCCCCCCCCCC` [DPPC, dipalmitoylphosphatidylcholine], for which the TLR4 activation entry is listed as “capable of disrupting TLR4 activation”.

With `CCCCCCCC/C=C\CCCCCCCC(=O)O[C@H](COC(=O)CCCCCCCCCCCCCCC)COP(=O)(O)OCC(O)CO` (some centres unmarked) [POPG, palmitoyl-oleoyl-phosphatidylglycerol], the TLR4 activation result was “capable of disrupting TLR4 activation”.
